The results in this text go back to ChEMBL document CHEMBL3872241, “Synthesis and bioactivity evaluation of 2,3-diaryl acrylonitrile derivatives as potential anticancer agents” (Bioorg Med Chem Lett, 2017).

Active and inactive are the calls of the source. No cut-off for these calls is given here. Bounds are passed on as bounds.

Data set [1] deals with Bel-7402. The data set is described as follows: Selectivity index, ratio of IC50 for human L02 cells to IC50 for human Bel7402 cells. It is filed as functional.
Data set [2] in a line: Cell cycle arrest in human HeLa cells assessed as accumulation at G0/G1 phase at 0.1 to 1 uM after 24 hrs by propidium iodide-based FACS analysis (reference value: 61.71%). The data set is classed as functional.
Data set [3] is described as follows: Cell cycle arrest in human HeLa cells assessed as accumulation at G2/M phase at 0.1 to 1 uM after 24 hrs by propidium iodide-based FACS analysis (reference value: 7.12%). The data set is classed as functional.
The nature of data set [4]: Cytotoxicity against human L02 cells assessed as cell growth inhibition after 48 hrs by MTT assay. It is filed as toxicity, cell-based. On the technique in general: Tetrazolium dyes change colour on reduction, which living cells bring about.
Data set [5] relates to HCT-116. Nature of the data set: Selectivity index, ratio of IC50 for human L02 cells to IC50 for human HCT116 cells. It is filed as functional.
Data set [6] is described as follows: Cytotoxicity against human HeLa cells assessed as cell growth inhibition after 48 hrs by MTT assay. The data set is classed as functional, cell-based.
The nature of data set [7]: Cytotoxicity against human L02 cells assessed as cell growth inhibition at 100 uM after 48 hrs by MTT assay. It is filed as toxicity, cell-based. To be noted: read-out: GI.
The nature of data set [8]: Cytotoxicity against human HCT116 cells assessed as cell growth inhibition after 48 hrs by MTT assay. The data set is classed as functional, cell-based. The following applies: HCT-116, 48 h.
Data set [9] in a line: Cytotoxicity against human Bel7402 cells assessed as cell growth inhibition after 48 hrs by MTT assay. It is filed as functional, cell-based. The following applies: Bel-7402, 48 h.
For data set [10], the system named is HeLa. Nature of the data set: Selectivity index, ratio of IC50 for human L02 cells to IC50 for human HeLa cells. The data set is classed as functional.
Data set [11] in a line: Cell cycle arrest in human HeLa cells assessed as accumulation at S phase at 0.1 to 1 uM after 24 hrs by propidium iodide-based FACS analysis (reference value: 31.26%). It is filed as functional. (In general: In flow cytometry, cells or beads pass a laser one at a time.)
Data set [12] can be described thus: (§1) Cytotoxicity against human HCT116 cells assessed as cell growth inhibition at 100 uM after 48 hrs by MTT assay. The data set is classed as functional. The following applies: HCT-116, 48 h, read-out: GI.
Data set [13] is described as follows: (§2) Cytotoxicity against human Bel7402 cells assessed as cell growth inhibition at 100 uM after 48 hrs by MTT assay. It is filed as functional. To be noted: Bel-7402, 48 h, read-out: GI.
The nature of data set [14]: Cytotoxicity against human HeLa cells assessed as cell growth inhibition at 100 uM after 48 hrs by MTT assay. The data set is classed as functional. To be noted: read-out: GI.
The nature of data set [15]: Cytotoxicity against human Caco2 cells assessed as cell growth inhibition at 0.3 uM by SRB assay. The data set is classed as functional. To be noted: Caco-2, read-out: GI. For orientation: In SRB staining, fixed cells bind dye roughly in proportion to their protein.
Data set [16] deals with HeLa. Nature of the data set: Antimigratory activity in human HeLa cells at 1 uM after 24 hrs by wound-scratch assay. It is filed as functional, cell-based.
The test system of data set [17] is HeLa. Nature of the data set: Induction of apoptosis in human HeLa cells assessed as increase in early apoptotic cells at 0.1 uM after 24 hrs by Annexin V-FITC/propidium iodide based FACS analysis. The data set is classed as functional, cell-based.
Data set [18] is described as follows: Cell cycle arrest in human HeLa cells assessed as accumulation at G0/G1 phase at 50 uM after 24 hrs by propidium iodide-based FACS analysis (reference value: 61.71%). The data set is classed as functional.
Data set [19] has as its system HCT-116. Described as §1. The data set is classed as functional.
Data set [20] in a line: Cell cycle arrest in human HeLa cells assessed as accumulation at S phase at 50 uM after 24 hrs by propidium iodide-based FACS analysis (reference value: 31.26%). The data set is classed as functional.
Data set [21] deals with Bel-7402. Described as §2. It is filed as functional.
Data set [22] is described as follows: Cell cycle arrest in human HeLa cells assessed as accumulation at G2/M phase at 50 uM after 24 hrs by propidium iodide-based FACS analysis (reference value: 7.12%). It is filed as functional.

For orientation: IC50 means the concentration at which inhibition is half-maximal. `CCOc1ccc(/C=C(\C#N)c2cc(OC)cc(OC)c2)cc1`: the entries for the “Ratio IC50” value in data set [1], in [5] and in [10] were above 151.52, above 769.23 and above 12.87, respectively. Further, the Activity turned out to be 0.74% in [2], 51.6% in data set [3] and 47.6% in data set [11]. The IC50 at 48 h in [4] is above 100 µM. The IC50 in [6] was determined as 7.77 µM; in [8], 0.13 µM; in [9] it was 0.66 µM. For the same molecule, the inhibition at 48 h, 100 µM in data set [7] was found to be 34.7%.

For the molecule `COc1cc(OC)cc(/C(C#N)=C/c2ccc(OCc3ccccc3)cc2)c1`, the inhibition of growth at 100 µM in [12] came out at 18.7%; in [13], 18.6%; in [14], 20.7%. In addition, the IC50 at 48 h in [4] is above 100 µM. Besides, the concentration for half-maximal inhibition (IC50) in [6], in [8] and in data set [9] was above 100 µM in each case. Also, in [7], the inhibition at 48 h, 100 µM was found to be 32.7%.

As to `COc1ccc(/C=C\c2cc(OC)cc(OC)c2)cc1` [8Z-3,4',5-TRIMETHOXYSTILBENE], in data set [15], the inhibition of growth at 0.3 µM worked out at 80%.

As to `CCOc1cccc(/C=C(\C#N)c2cc(OC)cc(OC)c2)c1`, the inhibition of growth at 100 µM in [12] is 38.8%; in data set [13] it was 5.1%; in [14], 8.9%. The 50% inhibitory concentration (IC50) at 48 h in data set [4] was above 100 µM. For the same molecule, the half-inhibitory concentration (IC50) in [6], in [8] and in data set [9] was above 100 µM throughout. In addition, in data set [7], the inhibition at 48 h, 100 µM amounted to 18.5%.

As to `CC(=O)O[C@H]1C(=O)[C@@]2(C)[C@H]([C@H](OC(=O)c3ccccc3)[C@]3(O)C[C@H](OC(=O)[C@H](O)[C@@H](NC(=O)c4ccccc4)c4ccccc4)C(C)=C1C3(C)C)[C@]1(OC(C)=O)CO[C@@H]1C[C@@H]2O` [PACLITAXEL], the entries for the “Ratio IC50” value in data set [1], in [5] and in data set [10] were above 1000, above 1000 and above 7.72, respectively. Further, the outcome in data set [16] and in data set [17] was Active. In addition, the Activity turned out to be 1.03% in [2], 70.6% in [3] and 28.5% in data set [11]. The concentration for half-maximal inhibition (IC50) at 48 h in data set [4] is above 100 µM. The values for the IC50 in [6], in data set [8] and in [9] were 13 µM, below 0.1 µM and below 0.1 µM, respectively.

For the molecule `COc1cc(OC)cc(/C(C#N)=C/c2cccc(C(F)(F)F)c2)c1`, the inhibition of growth at 100 µM in [12] is 28.7%; in data set [13], 20%; in data set [14] it was 18.3%. Also, in data set [4], the IC50 at 48 h was above 100 µM. Moreover, the IC50 in data set [6], in data set [8] and in data set [9] was above 100 µM throughout. Moreover, the inhibition at 48 h, 100 µM in data set [7] worked out at 29.4%.

Take `COc1cc(OC)cc(/C(C#N)=C/c2ccc(F)cc2)c1`: the inhibition of growth at 100 µM in data set [12] was determined as 27.8%; in data set [13], 9.3%; in [14], 45.8%. The half-maximal inhibitory concentration (IC50) at 48 h in data set [4] was above 100 µM. Also, the 50% inhibitory concentration (IC50) in data set [6], in [8] and in data set [9] was above 100 µM in each case. In data set [7], the inhibition at 48 h, 100 µM stood at 2.5%.

With `COc1cc(OC)cc(/C(C#N)=C/c2c(C)cc(C)cc2C)c1`, the inhibition of growth at 100 µM was determined as 28.9% in data set [12], 13.4% in data set [13] and 2.7% in data set [14]. In data set [4], the 50% inhibitory concentration (IC50) at 48 h is above 100 µM. Further, the IC50 in [6], in data set [8] and in data set [9] was above 100 µM each time. In data set [7], the inhibition at 48 h, 100 µM was found to be 28.1%.

With `COc1cc(OC)cc(/C(C#N)=C/c2ccccc2)c1`, the inhibition of growth at 100 µM in data set [12] was 27.1%; in [13], 34.8%; in [14], 28%. The IC50 at 48 h in [4] was above 100 µM. Further, the IC50 in data set [6], in [8] and in [9] was above 100 µM throughout. In addition, in data set [7], the inhibition at 48 h, 100 µM is 36.4%.

Consider `Oc1ccc(/C=C/c2cc(O)cc(O)c2)cc1` [RESVERATROL], for which the Activity was 72% in data set [18], 21.8% in data set [20] and 6.29% in data set [22]. Besides, the “growth inhibition (GI)” value in data set [19] and in data set [21] was “Active” each time. The figures for the IC50 in data set [6], in data set [8] and in [9] were 120 µM, 62.6 µM and 139 µM, respectively.

In the case of `COc1cccc(/C=C(\C#N)c2cc(OC)cc(OC)c2)c1`, the inhibition of growth at 100 µM is 41.1% in data set [12], 12.4% in [13] and 36.4% in data set [14]. Further, the concentration for half-maximal inhibition (IC50) at 48 h in [4] was above 100 µM. The IC50 in data set [6], in data set [8] and in data set [9] was above 100 µM throughout. For the same molecule, the inhibition at 48 h, 100 µM in data set [7] was found to be 19.5%.

As for `COc1cc(OC)cc(/C(C#N)=C/c2cccc(Br)c2)c1`, the values for the inhibition of growth at 100 µM in [12], in data set [13] and in data set [14] were 38.2%, 19.8% and 40.2%, respectively. The IC50 at 48 h in [4] is above 100 µM. For the same molecule, the IC50 in data set [6], in [8] and in [9] was above 100 µM throughout. Also, the inhibition at 48 h, 100 µM in [7] is 43.2%.

Turning to `COc1cc(OC)cc(/C(C#N)=C/c2ccccc2C(F)(F)F)c1`, the inhibition of growth at 100 µM in [12] is 26.6%; in data set [13], 11.4%; in data set [14], 4.9%. For the same molecule, the concentration for half-maximal inhibition (IC50) at 48 h in [4] was above 100 µM. Moreover, the IC50 in data set [6], in data set [8] and in data set [9] was above 100 µM throughout. The inhibition at 48 h, 100 µM in [7] was determined as 33.6%.

Consider `COc1cc(OC)cc(/C(C#N)=C/c2ccc(Br)cc2)c1`, for which the values for the Activity in [2], in data set [3] and in data set [11] were 0.7%, 69.9% and 30.1%, respectively. Moreover, in data set [13], the inhibition of growth at 100 µM was determined as 31.6%. In addition, the IC50 at 48 h in data set [4] was above 100 µM. Also, the “Ratio IC50” value is recorded as above 8.79 in [5] and above 23.81 in [10]. The IC50 is 4.2 µM in data set [6], 11.4 µM in data set [8] and above 100 µM in [9]. Also, the inhibition at 48 h, 100 µM in data set [7] was 36%.
